Results as given in ChEMBL document CHEMBL5108052, “Histone Deacetylase and Enhancer of Zeste Homologue 2 Dual Inhibitors Presenting a Synergistic Effect for the Treatment of Hematological Malignancies” (J Med Chem, 2022).

Columns and labels:
[1] = tested on: MV4-11; assay: Induction of apoptosis in human MV4-11 cells assessed as early apoptotic cells at 0.2 uM measured after 48 hrs by Annexin V/7-AAD-dual staining based flow cytometric analysis (reference value: 2.2 %); assay type: functional
[2] = biological target: T1, Histone deacetylase 8 (Homo sapiens, UniProt Q9BY41); assay: Inhibition of recombinant C-terminal His-fusion tagged/N-terminal Strep2 tagged human HDAC8 (1 to 377 residues) expressed in insect cells using RHK-K(Ac)-K(Ac)-AMC as substrate incubated for 2 hrs by Multimode microplate reader analysis
T1 sequence (Q9BY41 whole entry): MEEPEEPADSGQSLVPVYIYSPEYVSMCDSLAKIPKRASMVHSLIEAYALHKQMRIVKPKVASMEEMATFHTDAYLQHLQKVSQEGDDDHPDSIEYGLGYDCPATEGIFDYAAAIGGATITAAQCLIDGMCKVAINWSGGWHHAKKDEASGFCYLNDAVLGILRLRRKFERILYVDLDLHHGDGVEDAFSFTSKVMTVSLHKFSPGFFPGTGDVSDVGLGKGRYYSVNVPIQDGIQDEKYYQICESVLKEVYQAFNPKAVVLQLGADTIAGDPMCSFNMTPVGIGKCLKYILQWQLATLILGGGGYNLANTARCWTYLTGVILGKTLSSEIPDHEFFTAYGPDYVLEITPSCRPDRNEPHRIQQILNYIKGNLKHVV

[3] = Binding affinity to recombinant PRC2 complex (unknown origin) incubated for 90 seconds by surface plasmon resonance assay; design: species or system Homo sapiens
[4] = biological target: T2, Polyamine deacetylase HDAC10 (Homo sapiens, UniProt Q969S8); assay: Inhibition of HDAC10 (unknown origin) incubated for 2 hrs by Multimode microplate reader analysis
T2 sequence (Q969S8 whole entry): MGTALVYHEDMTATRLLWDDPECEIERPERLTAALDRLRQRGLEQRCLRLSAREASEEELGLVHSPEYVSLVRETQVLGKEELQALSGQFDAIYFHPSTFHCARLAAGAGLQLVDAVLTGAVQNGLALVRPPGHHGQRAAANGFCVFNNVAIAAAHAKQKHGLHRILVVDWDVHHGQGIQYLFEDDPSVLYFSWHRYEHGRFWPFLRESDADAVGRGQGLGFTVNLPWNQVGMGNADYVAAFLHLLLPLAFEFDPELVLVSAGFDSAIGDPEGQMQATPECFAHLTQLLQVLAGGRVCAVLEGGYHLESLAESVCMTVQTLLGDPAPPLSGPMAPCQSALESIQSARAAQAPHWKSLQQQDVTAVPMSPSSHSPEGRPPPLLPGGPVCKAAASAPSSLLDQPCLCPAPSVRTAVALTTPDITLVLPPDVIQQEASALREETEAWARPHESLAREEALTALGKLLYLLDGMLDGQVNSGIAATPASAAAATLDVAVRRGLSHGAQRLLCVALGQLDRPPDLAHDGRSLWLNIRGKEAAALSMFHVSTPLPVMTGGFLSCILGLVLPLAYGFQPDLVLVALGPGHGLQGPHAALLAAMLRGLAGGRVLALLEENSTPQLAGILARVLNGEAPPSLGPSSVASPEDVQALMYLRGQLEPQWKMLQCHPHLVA

[5] = biological target: T3, Protein deacetylase HDAC6 (Homo sapiens, UniProt Q9UBN7); assay: Inhibition of full length recombinant N-terminal GST-tagged human HDAC6 (1 to 1215 residues) expressed in baculovirus infected insect cells incubated for 2 hrs by Multimode microplate reader analysis
T3 sequence (Q9UBN7 whole entry): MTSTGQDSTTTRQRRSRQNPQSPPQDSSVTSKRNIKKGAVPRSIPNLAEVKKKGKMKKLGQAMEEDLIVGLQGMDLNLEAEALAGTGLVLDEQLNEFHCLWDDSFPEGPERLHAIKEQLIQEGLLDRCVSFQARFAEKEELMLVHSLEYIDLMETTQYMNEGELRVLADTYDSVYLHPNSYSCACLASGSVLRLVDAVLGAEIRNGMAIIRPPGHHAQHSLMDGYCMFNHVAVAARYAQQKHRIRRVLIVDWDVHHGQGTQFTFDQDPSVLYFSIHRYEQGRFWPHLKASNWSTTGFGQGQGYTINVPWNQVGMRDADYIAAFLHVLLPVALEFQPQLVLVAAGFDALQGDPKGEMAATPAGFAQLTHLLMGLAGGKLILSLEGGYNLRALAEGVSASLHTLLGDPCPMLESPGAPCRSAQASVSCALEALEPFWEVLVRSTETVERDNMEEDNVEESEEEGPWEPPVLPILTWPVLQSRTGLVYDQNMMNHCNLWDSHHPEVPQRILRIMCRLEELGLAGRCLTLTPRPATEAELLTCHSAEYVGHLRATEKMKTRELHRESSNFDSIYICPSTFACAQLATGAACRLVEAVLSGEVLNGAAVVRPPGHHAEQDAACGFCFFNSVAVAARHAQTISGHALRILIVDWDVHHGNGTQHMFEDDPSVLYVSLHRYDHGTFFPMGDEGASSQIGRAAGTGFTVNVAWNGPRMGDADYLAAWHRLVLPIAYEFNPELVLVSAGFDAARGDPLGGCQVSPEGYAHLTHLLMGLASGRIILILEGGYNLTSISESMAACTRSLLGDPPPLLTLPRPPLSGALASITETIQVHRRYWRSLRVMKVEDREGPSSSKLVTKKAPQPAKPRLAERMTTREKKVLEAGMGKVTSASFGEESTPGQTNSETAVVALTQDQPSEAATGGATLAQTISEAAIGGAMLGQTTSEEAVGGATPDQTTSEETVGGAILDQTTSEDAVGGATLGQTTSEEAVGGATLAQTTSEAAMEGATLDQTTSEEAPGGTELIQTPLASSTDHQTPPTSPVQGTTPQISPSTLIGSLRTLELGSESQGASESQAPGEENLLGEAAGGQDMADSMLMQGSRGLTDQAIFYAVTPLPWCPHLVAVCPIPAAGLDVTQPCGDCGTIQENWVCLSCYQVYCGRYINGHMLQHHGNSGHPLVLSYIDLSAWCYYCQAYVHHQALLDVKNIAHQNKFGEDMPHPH

[6] = tested on: MV4-11; assay: Induction of apoptosis in human MV4-11 cells assessed as late apoptotic cells at 0.1 uM measured after 48 hrs by Annexin V/7-AAD-dual staining based flow cytometric analysis (reference value: 1.1 %); assay type: functional
[7] = Metabolic stability in human liver microsomes assessed as half life measured after 5 mins in presence of NADPH and UDPGA by LC-MS/MS analysis; assay type: ADME, Microsome
[8] = tested on: MV4-11; assay: Induction of apoptosis in human MV4-11 cells assessed as viable cells at 0.2 uM measured after 48 hrs by Annexin V/7-AAD-dual staining based flow cytometric analysis (reference value: 96.4 %); assay type: functional; conditions: read-out: Activity
[9] = tested on: MV4-11; assay: Induction of apoptosis in human MV4-11 cells assessed as viable cells at 0.4 uM measured after 48 hrs by Annexin V/7-AAD-dual staining based flow cytometric analysis (reference value: 96.4 %); assay type: functional; conditions: read-out: Activity
[10] = tested on: MV4-11; assay: Induction of mitochondrial membrane potential in human MV4-11 cells assessed as reduction in red fluorescence intensity at 0.1 uM measured after 48 hrs by JC1 staining-based flow cytometry analysis (reference value: 98.8%); assay type: functional; design: scale not given: the % may be the effect or the level left

**Q.** With `Cc1cc(C)c(CNC(=O)c2cc(-c3ccc(N4CCN(c5ncc(C(=O)NO)cn5)CC4)nc3)cc3c2cnn3C(C)C)c(=O)[nH]1` as the compound, how does the Activity [1] read?
**A.** The Activity was 10.3%.

**Q.** What about the IC50 [2] of the same compound?
**A.** The IC50 was 110 nM.

**Q.** And the Kd [3]?
**A.** The Kd was 39 nM.

**Q.** And the IC50 [4]?
**A.** Its IC50 is 1470 nM.

**Q.** What about the IC50 [5] of the same compound?
**A.** Its IC50 is 700 nM.

**Q.** What about the Activity [6] of the same compound?
**A.** Its Activity is 4.4%.

**Q.** What about the half-life [7] of the same compound?
**A.** Its half-life is 15.3 min.

**Q.** And the viability at 0.2 µM [8]?
**A.** Its viability at 0.2 µM is 74%.

**Q.** And the viability at 0.4 µM [9]?
**A.** The viability at 0.4 µM was 53.8%.

**Q.** What about the Activity [10] of the same compound?
**A.** Its Activity is 92.9%.
